From paper PMC6315173, “Characterization of the Apelin/Elabela Receptors (APLNR) in Chickens, Turtles, and Zebrafish: Identification of a Novel Apelin-Specific Receptor in Teleosts” (Frontiers in Endocrinology, 2018)
Residues, ends and D or L forms follow the SMILES beside them. No end group written: not given here.

Key:
[1] = molecular target: T1, zebrafish APLNR2a (zfAPLNR2a) (Danio rerio, UniProt Q7SZP9); experiment: pGL3-CRE-luciferase reporter assay, HEK293 cells expressing zebrafish APLNR2a; format: cell-based; conditions: SEM
T1 construct: the open reading frame (ORF) of each APLNR was amplified from the animal; expressed in transfected cells; host or cells: HEK293
T1 sequence (Q7SZP9 1-362): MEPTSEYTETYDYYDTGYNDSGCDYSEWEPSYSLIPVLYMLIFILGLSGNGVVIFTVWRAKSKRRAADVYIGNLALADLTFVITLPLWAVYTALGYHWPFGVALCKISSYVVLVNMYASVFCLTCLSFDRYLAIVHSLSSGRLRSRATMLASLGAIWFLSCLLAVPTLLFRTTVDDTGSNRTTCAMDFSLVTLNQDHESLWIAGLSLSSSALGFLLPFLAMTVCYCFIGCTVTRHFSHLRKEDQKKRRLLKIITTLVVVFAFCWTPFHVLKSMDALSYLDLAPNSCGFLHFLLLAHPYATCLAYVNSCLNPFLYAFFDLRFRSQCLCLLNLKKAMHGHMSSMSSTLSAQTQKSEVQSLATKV
Description: (§1) In brief, HEK293 cells were cultured on a six-well plate and grown for 24 h before transfection. The cells were then transfected with a mixture containing 700 ng pGL3-CRE-Luciferase reporter construct (or pGL4-SRE-Luciferase reporter construct), 200 ng of receptor expression plasmid [or empty pcDNA3.1(+) vector as a negative control], and 2 μl jetPRIME (Polyplus Transfection, Illkirch, France) in 200 μl buffer. Twenty-four hour later, HEK293 cells were sub-cultured into a 96-well plate at 37°C for an additional 24 h before treatment. After removal of medium from the 96-well plate, the cells were treated with 100 μl peptide-containing medium (or peptide-free medium) for 6 h in the presence or absence of forskolin (5 μM). Finally, HEK293 cells were lysed with 1 × passive lysis buffer for luciferase assay (Promega, Madison, WI, USA) and the luciferase activity of the cell lysate was measured by a Multimode microplate Reader (TriStar LB 941, EG&G Berthold, Germany) according to the manufacturer's instruction.
(§2) The luciferase activity in each treatment group was expressed as the relative fold changes as compared with their respective control groups. The data were analyzed by non-linear regression followed by one-way ANOVA using GraphPad Prism 5 (GraphPad, San Diego, CA, USA). To validate the results, all experiments were repeated at least twice.

[2] = molecular target: T2, zebrafish APLNR2b (zfAPLNR2b) (Danio rerio, UniProt A0T2N3); experiment: pGL3-CRE-luciferase reporter assay, HEK293 cells expressing zebrafish APLNR2b; format: cell-based; conditions: SEM
T2 construct: the open reading frame (ORF) of each APLNR was amplified from the animal; expressed in transfected cells; host or cells: HEK293
T2 sequence (A0T2N3 1-359): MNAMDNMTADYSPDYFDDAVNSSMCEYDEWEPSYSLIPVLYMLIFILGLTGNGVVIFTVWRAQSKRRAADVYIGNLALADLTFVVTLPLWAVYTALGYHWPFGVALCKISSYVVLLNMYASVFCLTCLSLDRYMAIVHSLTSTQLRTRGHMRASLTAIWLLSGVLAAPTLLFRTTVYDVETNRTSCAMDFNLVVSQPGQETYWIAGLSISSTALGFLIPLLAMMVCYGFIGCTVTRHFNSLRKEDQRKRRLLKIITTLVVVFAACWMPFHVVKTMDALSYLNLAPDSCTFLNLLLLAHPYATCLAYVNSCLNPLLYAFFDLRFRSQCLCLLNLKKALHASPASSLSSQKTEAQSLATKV
Description: as §1, §2

[3] = tested on: zebrafish APLNR3a (zfAPLNR3a); experiment: pGL3-CRE-luciferase reporter assay, HEK293 cells expressing zebrafish APLNR3a; format: cell-based, zebrafish (Danio rerio); conditions: HEK293 cells transiently expressing zfAPLNR3a, inhibition of forskolin (5 μM)-stimulated pGL3-CRE-luciferase activity, 6 h, mean ± S.E. of 3 independent experiments, N = EC50 cannot be evaluated
Description: as §1, §2

[4] = tested on: tilapia APLNR3b (tiAPLNR3b); experiment: pGL3-CRE-luciferase reporter assay, HEK293 cells expressing tilapia APLNR3b; format: cell-based, Nile tilapia (Oreochromis niloticus); conditions: HEK293 cells transiently expressing tiAPLNR3b, inhibition of forskolin (5 μM)-stimulated pGL3-CRE-luciferase activity, 6 h, mean ± S.E. of 3 independent experiments, N = EC50 cannot be evaluated
Description: as §1, §2

zebrafish APLNR2a = molecular target: T3, zebrafish APLNR2a (Danio rerio, UniProt Q7SZP9); experiment: Western blot of ERK1/2 phosphorylation, HEK293 cells expressing zebrafish APLNR2a; format: cell-based; conditions: 100 nM, duplicates, time-dependent (5, 10, 20 min)
T3 construct: the open reading frame (ORF) of each APLNR was amplified from the animal; expressed in transfected cells; host or cells: HEK293
T3 sequence (Q7SZP9 1-362): T1 sequence (Q7SZP9 1-362)
Description: HEK293 cells cultured in a 60-mm culture dish (Nunc, Rochester, NY, USA) with 70% confluence were transfected by 1 μg of receptor expression plasmid using jetPRIME reagent according to manufacturers' instruction (Polyplus Transfection, Illkirch, France). […] These cells were washed with cold PBS and lysed by RIPA Lysis Buffer (Roche, Basel, Switzerland) on ice. Western blot was used to examine ERK1/2 phosphorylation and β-actin levels in cell lysates.

zebrafish APLNR3a = experiment: Western blot of ERK1/2 phosphorylation, HEK293 cells expressing zebrafish APLNR3a; format: cell-based, zebrafish (Danio rerio)
Description: HEK293 cells cultured in a 60-mm culture dish (Nunc, Rochester, NY, USA) with 70% confluence were transfected by 1 μg of receptor expression plasmid using jetPRIME reagent according to manufacturers' instruction (Polyplus Transfection, Illkirch, France). After the 24-h transfection, HEK293 cells were sub-cultured into a 24-well plate, serum-deprived for 12 h and then treated by peptides for 10 min. These cells were washed with cold PBS and lysed by RIPA Lysis Buffer (Roche, Basel, Switzerland) on ice. Western blot was used to examine ERK1/2 phosphorylation and β-actin levels in cell lysates.

Molecule | EC50 [1] [nM] | EC50 [2] [nM] | EC50 [3] [nM] | EC50 [4] [nM] | phosphorylation of ERK1/2, Western blot (zebrafish APLNR2a) | ERK1/2 phosphorylation, Western blot (zebrafish APLNR3a) | EC50 ([3]; SEM) [nM] | EC50 ([4]; SEM) [nM]
CC(C)C[C@H](NC(=O)[C@H](CC(N)=O)NC(=O)[C@H](CC(C)C)NC(=O)[C@H](Cc1ccccc1)NC(=O)[C@H](CC(=O)O)NC(=O)[C@H](Cc1c[nH]cn1)NC(=O)[C@H](CCCCN)NC(=O)[C@@H](NC(=O)CNC(=O)[C@H](Cc1c[nH]cn1)NC(=O)[C@H](CCCCN)NC(=O)[C@@H](N)CC(=O)O)[C@@H](C)O)C(=O)N[C@@H](CCCNC(=N)N)C(=O)N[C@@H](CCCNC(=N)N)C(=O)N[C@@H](CCCCN)C(=O)N[C@@H](Cc1ccc(O)cc1)C(=O)N[C@@H](CCCNC(=N)N)C(=O)N[C@@H](CCCNC(=N)N)C(=O)N[C@@H](Cc1c[nH]cn1)C(=O)N[C@@H](CC(N)=O)C(=O)N[C@@H](CS)C(=O)N1CCC[C@H]1C(=O)N[C@@H](CCCCN)C(=O)N[C@@H](CCCCN)C(=O)N[C@@H](CCCNC(=N)N)C(=O)N[C@@H](CS)C(=O)N[C@@H](CC(C)C)C(=O)N1CCC[C@H]1C(=O)N[C@@H](CC(C)C)C(=O)N[C@@H](Cc1c[nH]cn1)C(=O)N[C@@H](CO)C(=O)N[C@@H](CCCNC(=N)N)C(=O)N[C@H](C(=O)N1CCC[C@H]1C(=O)N[C@@H](Cc1ccccc1)C(=O)N1CCC[C@H]1C(=O)O)C(C)C [zfELA-36] (H-DKHGTKHDFLNLRRKYRRHNCPKKRCLPLHSRVPFP-OH; N-terminus and C-terminus assumed) | 1.61 ± 0.8 | 1.29 ± 0.9 | > 100 | > 100 | can enhance phosphorylation of ERK1/2 | not ELA-36 | – | –
TPLRQNPARAGRSQRPAGWRRRRPRPRLSHKGPMPF [zfApelin-36] | 0.89 ± 0.44 | 0.51 ± 0.31 | – | – | can enhance phosphorylation of ERK1/2 | can induce ERK1/2 phosphorylation | 0.45 ± 0.12 | 0.77 ± 0.24
